Structures can show the parent of a compound that is named as a salt.
Legend:
HCT116 [1] = assay: efficacy (fitted maximal change in viability relative to DMSO control); higher = less cytotoxic (negative = loss of viability); settings: 48 h
HCT116 [2] = assay: AC50 cell viability (CellTiter-Glo); higher = less potent; settings: 48 h
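Wherever AC50 cell viability (CellTiter-Glo) is given: HCT116 colorectal carcinoma cells screened at five concentrations per compound, luminescent viability scaled between DMSO wells and empty wells on each plate, curves fitted per compound.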
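Wherever efficacy (fitted maximal change in viability relative to DMSO control) is given: Luminescence-based viability readout, five doses per compound, normalized against on-plate DMSO and empty-well controls, followed by dose-response curve fitting for every drug.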

Row | SMILES | efficacy (HCT116 [1]) [%] | AC50 cell viability (HCT116 [2]) [µM]
1 | CNC(=O)c1cc(Oc2ccc3nc(N[C@@H]4CCCC[C@H]4O)sc3c2)ccn1 [BLZ-945] | -41.8 | 20.9
2 | NC(=O)c1ccc2[nH]c(-c3ccc(Oc4ccc(Cl)cc4)cc3)nc2c1 [BML-277] | -67.3 | 18.6
3 | FC1=CC=C(C=C1)N2/C=C\C=C(C(=O)NC3=CC=C(OC4=C5C=C[NH]C5=NC=C4)C(=C3)F)/C2=O [BMS-2] | -37.8 | 18.6
4 | O=C(Nc1ncc(-c2cc(C(F)F)nn2-c2c(Cl)cccc2Cl)s1)C1CC1 [BMS-3] | -68 | 0.833
5 | CC(C)C(=O)Nc1ncc(-c2cc(C(F)F)nn2-c2c(Cl)cccc2Cl)s1 [BMS-5] | -80.8 | 18.6
6 | COc1nc(OCc2cccc(-c3ccccc3)c2C)ccc1CNCCNC(C)=O [BMS-202] | -89.9 | 14.8
7 | COC(=O)Nc1cc(Nc2cc(NC3CC3)c3ncc(C#N)n3n2)c(Cl)c(N2CCN(C)CC2)c1 [BMS-595] | -103 | 0.525
8 | CC(C)c1cnn2c(NCc3ccccc3)cc(N[C@@H](CO)[C@H](O)CO)nc12 [BS-194] | -59.1 | 0.0833
9 | C[C@@H]1CN(Cc2ccc(F)cc2)CCN1C(=O)COc1ccc(Cl)cc1NC(N)=O [BX-471] | -59.8 | 0.209
10 | Cc1nc(NC(=O)N2CCCC2C(N)=O)sc1-c1ccnc(C(C)(C)C(F)(F)F)c1 (stereo not drawn) [BYL-719] | -87.4 | 3.72
11 | Cc1ccc(NC(=O)c2ccc(CN3CC[C@H](N(C)C)C3)c(C(F)(F)F)c2)cc1Nc1nccc(-c2cncnc2)n1 [Bafetinib (INNO-406)] | -131 | 7.23
12 | CO/C1=C/C(C)=C\[C@@H](C)[C@@H](O)[C@@H](C)C/C(C)=C\C=C/[C@H](OC)[C@@H]([C@@H](C)[C@@H](O)[C@H](C)[C@@]2(O)C[C@@H](O)[C@H](C)[C@@H](C(C)C)O2)OC1=O [Bafilomycin A1] | -81.9 | 0.035
13 | C[N+](C)([O-])CCNc1ccc(NCC[N+](C)(C)[O-])c2c1C(=O)c1c(O)ccc(O)c1C2=O [Banoxantrone] | -45.2 | 2.09
14 | COC(=O)[C@]12CCC(C)(C)C[C@H]1[C@H]3C(=O)\C=C\4[C@@](C)(CC[C@H]5C(C)(C)C(=O)\C(=C/[C@]45C)C#N)[C@]3(C)CC2 [Bardoxolone methyl] | -91.9 | 7.42
15 | CC[S+](=O)([O-])N1CC(CC#N)(n2cc(-c3ncnc4[nH]ccc34)cn2)C1 [Baricitinib] | -91.6 | 29.5
16 | O=C1Nc2nc(-c3c(O)cccc3OCC3CC3)cc([C@@H]3CCCNC3)c2CO1 [Bay-65-1942 hydrochloride] | -90.5 | 9.34
17 | CC(C)(C)NC(=O)Nc1cccc(Nc2ncc(F)c(NC(C)(C)CO)n2)c1 [Bayer-18] | -54.8 | 18.6
18 | Cc1c(-c2ccc(O)cc2)n(Cc2ccc(OCCN3CCCCCC3)cc2)c2ccc(O)cc12 [Bazedoxifene] | -101 | 20.9
19 | O=C(/C=C/c1cccc([S+](=O)([O-])Nc2ccccc2)c1)NO [Belinostat] | -87.7 | 0.525
20 | CC(C)NC(=O)[C@H]1CC[C@@H](n2c(NC(=O)c3ccc(F)cc3)nc3ccc(CN4CCC(C(C)(C)O)CC4)cc32)CC1 [Belizatinib] | -92.8 | 7.23
21 | CC[C@@]1(O)C(=O)OCC/2=C1/C=C/3N(CC4=C(CCNC(C)C)C5=CC=CC=C5N=C34)C2=O [Belotecan] | -80.8 | 0.0166
22 | Nc1nc(Nc2ccc3c(c2)CC[C@@H](N2CCCC2)CC3)nn1-c1cc2c(nn1)-c1ccccc1CCC2 [Bemcentinib] | -108 | 14.8
23 | N/C(=N\C(=O)c1nc(Cl)c(N)nc1N)NCc1ccccc1 [Benzamil] | -81 | 20.9
24 | CC(C)COCC(CN(Cc1ccccc1)c1ccccc1)N1CCCC1 (stereo not drawn) [Bepridil] | -104 | 16.6
25 | COc1ccc2cc3[n+](cc2c1OC)CCc1cc2c(cc1-3)OCO2 [Berberine] | -96.9 | 14.8
26 | CNCc1ccc(-c2cc(-c3nc(-c4ccc([S+](=O)([O-])C(C)C)cc4)cnc3N)on2)cc1 [Berzosertib] | -63 | 10.5
27 | C[N+](C)(C)CC(=O)O [Betaine] | -51.8 | 20.9
28 | Nc1cc(C(F)(F)F)c(-c2nc(N3CCOCC3)nc(N3CCOCC3)n2)cn1 [Bimiralisib] | -60.2 | 1.86
29 | CC1=C(C)C\2=C(S1)[N]3C(=NN=C3C(CC(=O)NC4=CC=C(O)C=C4)\N=C2C5=CC=C(Cl)C=C5)C (stereo not drawn) [Birabresib] | -80.8 | 0.833

Source: the supplement of paper PMC10290057
